Conditions in all cases: 11-point 3-fold dilution
In test [1] the target is T1, FLT3 ITD, D835V (Homo sapiens, UniProt P36888, D835V, form not given).
T1 construct: fused on or other part: DNA tag for qPCR detection (kinase-tagged T7 phage, or made in HEK-293 cells and then tagged with DNA)
T1 sequence (P36888 1-993 D835V): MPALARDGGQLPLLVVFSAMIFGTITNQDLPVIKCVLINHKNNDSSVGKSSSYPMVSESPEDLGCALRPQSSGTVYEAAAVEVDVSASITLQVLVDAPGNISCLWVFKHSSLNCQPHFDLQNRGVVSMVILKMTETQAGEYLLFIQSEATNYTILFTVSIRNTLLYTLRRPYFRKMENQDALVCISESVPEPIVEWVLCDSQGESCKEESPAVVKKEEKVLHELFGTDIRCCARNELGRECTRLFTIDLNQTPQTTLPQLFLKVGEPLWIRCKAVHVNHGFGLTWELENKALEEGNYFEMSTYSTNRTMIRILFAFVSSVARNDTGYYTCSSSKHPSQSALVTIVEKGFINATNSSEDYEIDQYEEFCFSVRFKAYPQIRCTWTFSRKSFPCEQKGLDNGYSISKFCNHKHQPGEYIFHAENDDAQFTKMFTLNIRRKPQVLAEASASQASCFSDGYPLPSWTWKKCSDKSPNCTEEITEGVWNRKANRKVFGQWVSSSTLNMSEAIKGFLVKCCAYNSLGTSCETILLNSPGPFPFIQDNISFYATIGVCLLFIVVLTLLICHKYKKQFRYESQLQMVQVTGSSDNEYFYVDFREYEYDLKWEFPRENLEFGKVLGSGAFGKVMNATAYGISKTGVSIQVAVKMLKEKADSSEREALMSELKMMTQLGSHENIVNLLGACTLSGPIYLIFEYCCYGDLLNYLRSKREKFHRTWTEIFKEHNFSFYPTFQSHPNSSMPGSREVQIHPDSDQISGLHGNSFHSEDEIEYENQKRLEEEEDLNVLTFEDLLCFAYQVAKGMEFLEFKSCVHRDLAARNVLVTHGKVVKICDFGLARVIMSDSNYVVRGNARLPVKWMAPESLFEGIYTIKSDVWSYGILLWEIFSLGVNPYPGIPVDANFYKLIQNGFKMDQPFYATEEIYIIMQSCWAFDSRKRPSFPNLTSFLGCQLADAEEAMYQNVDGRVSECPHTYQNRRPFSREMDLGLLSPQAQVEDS
Briefly: DiscoverX KINOMEscan competition binding assay, FLT3 ITD, D835V. The source says:
(§1) […]. […] As a result, the data report thermodynamic interaction affinities (Kd values), rather than IC50 values that are dependent on ATP concentrations. The assay uses a DNA-tagged version of the protein kinase, and an immobilized ligand bound to a solid support. Compounds that directly or indirectly prevent kinase binding to the immobilized ligand reduce the amount of kinase captured on the solid support, which is detected using an ultra-sensitive qPCR method. Affinity constants reported from the assay have been reported to be independent of the immobilized ligand used that is coupled to the solid support (See supplemental information in Fabian, M. A. et. al., (2005) Nat. Biotechnol. 23, 329-336; Wodicka, L. M. et. al., (2010) Chem. Biol. 17, 1241-1249.)
(§2) Kinase-tagged T7 phage strains were prepared in an E. coli host derived from the BL21 strain. E. coli were grown to log-phase and infected with T7 phage and incubated with shaking at 32° C. until lysis. The lysates were centrifuged and filtered to remove cell debris. The remaining kinases were produced in HEK-293 cells and subsequently tagged with DNA for qPCR detection. Streptavidin-coated magnetic beads were treated with biotinylated small molecule ligands for 30 minutes at room temperature to generate affinity resins for kinase assays. The liganded beads were blocked with excess biotin and washed with blocking buffer (SeaBlock (Pierce), 1% BSA, 0.05% Tween 20, 1 mM DTT) to remove unbound ligand and to reduce non-specific binding. […] Test compounds were prepared as 111× stocks in 100% DMSO. Kds were determined using an 11-point 3-fold compound dilution series with three DMSO control points. All compounds for Kd measurements are distributed by acoustic transfer (non-contact dispensing) in 100% DMSO. The compounds were then diluted directly into the assays such that the final concentration of DMSO was 0.9%. All reactions were performed in polypropylene 384-well plates. Each was a final volume of 0.02 mL. […] The kinase concentration in the eluates was measured by qPCR.
(§3) Binding constants (Kds) were calculated with a standard dose-response curve using the Hill equation. The Hill Slope was set to −1. Curves were fitted using a non-linear least square fit with the Levenberg-Marquardt algorithm.

Test [2] deals with T2, FLT3 Autoinh. (Homo sapiens, UniProt P36888).
T2 construct: purchased DiscoverX (KINOMEscan); host or cells: E. coli BL21-derived host (T7 phage) or HEK-293
T2 sequence (P36888 564-993 limits assumed): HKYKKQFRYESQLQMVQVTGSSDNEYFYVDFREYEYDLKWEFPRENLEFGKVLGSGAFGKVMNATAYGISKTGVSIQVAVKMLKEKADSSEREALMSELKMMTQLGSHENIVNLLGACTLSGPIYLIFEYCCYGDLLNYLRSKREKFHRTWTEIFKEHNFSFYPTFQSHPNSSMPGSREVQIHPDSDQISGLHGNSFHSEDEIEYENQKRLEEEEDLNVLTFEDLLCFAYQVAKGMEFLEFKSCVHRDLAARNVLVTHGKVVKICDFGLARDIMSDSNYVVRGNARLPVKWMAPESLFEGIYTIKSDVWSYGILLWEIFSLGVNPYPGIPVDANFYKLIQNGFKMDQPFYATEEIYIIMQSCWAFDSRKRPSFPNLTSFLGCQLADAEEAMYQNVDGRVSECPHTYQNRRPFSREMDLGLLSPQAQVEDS
Briefly: DiscoverX KINOMEscan competition binding assay, FLT3 Autoinh.
Text: as §1, §2, §3

The target in test [3] is T3, IRAK4 (Homo sapiens, UniProt Q9NWZ3).
T3 sequence (Q9NWZ3 1-460): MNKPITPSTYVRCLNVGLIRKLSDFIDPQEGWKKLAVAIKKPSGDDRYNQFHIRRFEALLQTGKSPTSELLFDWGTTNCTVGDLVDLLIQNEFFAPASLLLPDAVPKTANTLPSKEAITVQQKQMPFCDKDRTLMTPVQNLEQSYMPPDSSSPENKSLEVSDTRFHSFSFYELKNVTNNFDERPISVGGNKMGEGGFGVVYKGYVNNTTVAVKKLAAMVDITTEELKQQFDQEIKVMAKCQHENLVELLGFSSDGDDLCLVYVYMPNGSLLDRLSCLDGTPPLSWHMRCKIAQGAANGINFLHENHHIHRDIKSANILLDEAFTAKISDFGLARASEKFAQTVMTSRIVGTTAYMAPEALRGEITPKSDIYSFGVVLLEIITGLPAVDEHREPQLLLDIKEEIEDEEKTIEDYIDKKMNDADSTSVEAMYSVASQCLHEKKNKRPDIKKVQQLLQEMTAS
Briefly: DiscoverX KINOMEscan competition binding assay, IRAK4. The arrangement: purchased Reaction Biology (RBC HotSpot).
Text: as §1, §2, §3

A word on the Kd: it is the equilibrium constant for the complex coming apart. Low readings indicate higher affinity, high ones lower affinity.

Regarding `COc1cc2ncc(-c3nc(N[C@H]4CNCC[C@@H]4F)ncc3F)n2nc1C1CC1` [Compound 1a, 4-(6-cyclopropyl-7-methoxyimidazo[1,2-b]pyridazin-3-yl)-5-fluoro-N-((3S,4S)-4-fluoropiperidin-3-yl)pyrimidin-2-amine], the Kd was < 0.17 nM in test [1], 2.2 nM in test [2] and < 0.17 nM in test [3].
For the compound `FC(F)COc1cc2ncc(-c3ccnc(N[C@H]4CNCC[C@@H]4F)n3)n2nc1C1CC1` [Compound 4a, 4-(6-cyclopropyl-7-(2,2-difluoroethoxy)imidazo[1,2-b]pyridazin-3-yl)-N-((3 S,4S)-4-fluoropiperidin-3-yl)pyrimidin-2-amine], the Kd in test [1] is < 0.17 nM; in test [2], 21 nM; in test [3], 0.59 nM.
As to `COc1cc2ncc(-c3nc(N[C@H]4CNCC[C@@H]4F)ncc3F)n2nc1C(C)(C)O` [Compound 45a, 2-(3-(5-fluoro-2-(((3S,4S)-4-fluoropiperidin-3-yl)amino)pyrimidin-4-yl)-7-methoxyimidazo[1,2-b]pyridazin-6-yl)propan-2-ol], the Kd in test [1] came to 0.23 nM; in test [2], 11 nM; in test [3] it was 0.58 nM.
On to `CC(C)(O)c1ccc2ncc(-c3nc(N[C@H]4CNCC[C@@H]4F)ncc3F)n2c1` [Compound 46a, 2-(3-(5-fluoro-2-(((3S,4S)-4-fluoropiperidin-3-yl)amino)pyrimidin-4-yl)imidazo[1,2-a]pyridin-6-yl)propan-2-ol], for which the results for the Kd in test [1], in test [2] and in test [3] were < 0.17 nM, 7.1 nM and < 0.17 nM, respectively.
Consider `COc1cc2ncc(-c3nc(N[C@H]4CNCC[C@@H]4F)ncc3F)n2nc1C1COC1` [Compound 92a, 5-fluoro-N-((3S,4S)-4-fluoropiperidin-3-yl)-4-(7-methoxy-6-(oxetan-3-yl)imidazo[1,2-b]pyridazin-3-yl)pyrimidin-2-amine], for which the figures for the Kd in test [1], in test [2] and in test [3] were < 0.17 nM, 3.3 nM and < 0.17 nM, respectively.
As to `CC(C)(O)c1cn2c(-c3nc(N[C@H]4CNCC[C@@H]4F)ncc3F)cnc2cn1` [Compound 100a, 2-(3-(5-fluoro-2-(((3S,4S)-4-fluoropiperidin-3-yl)amino)pyrimidin-4-yl)imidazo[1,2-a]pyrazin-6-yl)propan-2-ol], the Kd in test [1] worked out at 0.19 nM; in test [2], 57 nM; in test [3] it was 1.5 nM.
As for `COc1cc2ncc(-c3nc(N[C@H]4CNCC[C@@H]4F)ncc3F)n2nc1N1CCCS1(=O)=O` [Compound 112a, 2-(3-(5-fluoro-2-(((3S,4S)-4-fluoropiperidin-3-yl)amino)pyrimidin-4-yl)-7-methoxyimidazo[1,2-b]pyridazin-6-yl)isothiazolidine 1,1-dioxide], the Kd in test [1] is < 0.17 nM; in test [2], 2.7 nM; in test [3], 0.61 nM.

Source of the values: patent US20260226048A1, “MULTI-CYCLIC IRAK AND FLT3 INHIBITING COMPOUNDS AND USES THEREOF” (CHILDREN'S HOSPITAL MEDICAL CENTER, priority 2023, published 2026).
